Drawing on PubChem BioAssay AID192 (DTP/NCI, 2004), this text covers T/C for 15 compounds.

“And” between values parts separate entries of the source, which are not always exact repeats. Equal entries are not always repeated. Inconclusive results and toxic doses are left out.

The subject of the assay is BDF1 mice, B16 melanoma ip, median survival T/C. Nature of the assay: NCI In Vivo Anticancer Drug Screen. Data for tumor model B16 Melanoma (intraperitoneal) in B6D2F1 (BDF1) mice. The settings on record: endpoint: median survival time, higher = longer survival. An outline of the steps: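 In this screen, activity was judged from survival or tumor size in treated versus vehicle-treated tumor-bearing mice, reported as T/C.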

The mark [1] stands for this setting: dose: 12.5 mg/kg/injection, schedule: Q01DX009 (ip), vehicle: saline.
The mark [2] stands for this setting: dose: 25.0 mg/kg/injection, schedule: Q01DX009 (ip), vehicle: saline.
The mark [3] stands for this setting: dose: 50.0 mg/kg/injection, schedule: Q01DX009 (ip), vehicle: saline.
The mark [4] stands for this setting: dose: 100.0 mg/kg/injection, schedule: Q01DX009 (ip), vehicle: saline.
The mark [5] stands for this setting: dose: 6.25 mg/kg/injection, schedule: Q01DX009 (ip), vehicle: Klucel (hydroxypropylcellulose) (HPC).
Setting [6] is: dose: 12.5 mg/kg/injection, schedule: Q01DX009 (ip), vehicle: Klucel (hydroxypropylcellulose) (HPC).
Setting [7] is: dose: 100.0 mg/kg/injection, schedule: Q01DX009 (ip), vehicle: Klucel (hydroxypropylcellulose) (HPC).
The mark [8] stands for this setting: dose: 200.0 mg/kg/injection, schedule: Q01DX009 (ip), vehicle: Klucel (hydroxypropylcellulose) (HPC).
[9] abbreviates: dose: 400.0 mg/kg/injection, schedule: Q01DX009 (ip), vehicle: Klucel (hydroxypropylcellulose) (HPC).
[10] abbreviates: dose: 50.0 mg/kg/injection, schedule: Q01DX009 (ip), vehicle: Klucel (hydroxypropylcellulose) (HPC).
Where [11] appears, read: dose: 100.0 mg/kg/injection, schedule: Q04DX003 (ip), vehicle: Klucel (hydroxypropylcellulose) (HPC).

Turning to `O=C1C=CN(C2OC(CO)C(O)C2O)C(=O)C1` (stereo not given), the T/C is 104 % of control under setting [1]; 104 % of control under setting [2]; 100 % of control (dose: 50.0 mg/kg/injection, schedule: Q01DX009 (ip), vehicle: saline sonified); 119 % of control under setting [3]; 86 % of control (dose: 100.0 mg/kg/injection, schedule: Q01DX009 (ip), vehicle: saline sonified); 118 % of control under setting [4]. Besides, under “dose: 200.0 mg/kg/injection, schedule: Q01DX009 (ip), vehicle: saline sonified”, the T/C is 89 % of control.

For `CCCCCCC(C)NCC(O)COc1cccc(C)c1` (stereo not given), the T/C runs as follows: (dose: 3.12 mg/kg/injection, schedule: Q01DX009 (ip), vehicle: Klucel (hydroxypropylcellulose) (HPC)) 90 % of control; under setting [5], 94 % of control; under setting [6], 89 % of control.

With `OC(CCl)CN1CC[N+]2(CC1)CC[N+]1(CCN(CC(O)CCl)CC1)CC2` (stereo not given), the T/C is, setting by setting: (dose: 4.0 mg/kg/injection, schedule: Q03HX024 (ip), vehicle: water) 114 % of control; (dose: 8.0 mg/kg/injection, schedule: Q03HX016 (ip), vehicle: water) 114 % of control; (dose: 8.0 mg/kg/injection, schedule: Q03HX024 (ip), vehicle: water) 117 % of control; under setting [1], 116 % of control; (dose: 16.0 mg/kg/injection, schedule: Q01DX009 (ip), vehicle: water) 114 % of control; (dose: 16.0 mg/kg/injection, schedule: Q03HX008 (ip), vehicle: water) 113 % of control. Besides, the T/C (dose: 16.0 mg/kg/injection, schedule: Q03HX016 (ip), vehicle: water) is 121 % of control; the T/C (dose: 16.0 mg/kg/injection, schedule: Q03HX024 (ip), vehicle: water) is 121 % of control; the T/C under setting [2] is 111 % of control; the T/C (dose: 32.0 mg/kg/injection, schedule: Q03HX008 (ip), vehicle: water) was 123 % of control; the T/C (dose: 44.0 mg/kg/injection, schedule: Q01DX009 (ip), vehicle: saline) was 116 % of control; the T/C (dose: 66.0 mg/kg/injection, schedule: Q01DX009 (ip), vehicle: water) was 151 % of control and 172 % of control. Besides, for the setting “dose: 100.0 mg/kg/injection, schedule: Q01DX009 (ip), vehicle: water”, the T/C was 150 % of control.

For the compound `COC(=O)Nc1ccc(Cc2ccc(NC(=O)OC)cc2)cc1`, the T/C (dose: 6.25 mg/kg/injection, schedule: Q01DX009 (ip), vehicle: saline with Tween-80) is 107 % of control; the T/C (dose: 12.5 mg/kg/injection, schedule: Q01DX009 (ip), vehicle: saline with Tween-80) is 110 % of control; the T/C (dose: 25.0 mg/kg/injection, schedule: Q01DX009 (ip), vehicle: saline with Tween-80) is 112 % of control; the T/C (dose: 50.0 mg/kg/injection, schedule: Q01DX009 (ip), vehicle: saline with Tween-80) was 115 % of control.

Turning to `CCC(=O)c1ccccc1NC(C)=O`, the T/C under setting [7] is 102 % of control, the T/C under setting [8] is 98 % of control and the T/C under setting [9] is 97 % of control.

Regarding `C/C=C(/C)C(=O)O[C@H]1CC[N+]2([O-])CC=C(COC(=O)[C@@](O)([C@H](C)OC)C(C)(C)O)[C@H]12` (stereo not given in full), the T/C under setting [2] was 95 % of control; the T/C under setting [3] was 97 % of control; the T/C under setting [4] is 107 % of control; the T/C (dose: 200.0 mg/kg/injection, schedule: Q01DX009 (ip), vehicle: saline) is 100 % of control.

For the compound `CC12CCC(O)CC1CCC1C2CCC2(C)C(c3ccc(=O)oc3)CC3OC312` (stereo not given), the T/C (dose: 0.31 mg/kg/injection, schedule: Q01DX009 (ip), vehicle: saline with Tween-80) was 102 % of control; the T/C (dose: 0.62 mg/kg/injection, schedule: Q01DX009 (ip), vehicle: saline with Tween-80) was 94 % of control; the T/C (dose: 1.25 mg/kg/injection, schedule: Q01DX009 (ip), vehicle: saline with Tween-80) was 95 % of control; the T/C (dose: 2.5 mg/kg/injection, schedule: Q01DX009 (ip), vehicle: saline with Tween-80) is 98 % of control; the T/C (dose: 5.0 mg/kg/injection, schedule: Q01DX009 (ip), vehicle: saline with Tween-80) was 100 % of control; the T/C (dose: 10.0 mg/kg/injection, schedule: Q01DX009 (ip), vehicle: saline with Tween-80) is 95 % of control.

For the compound `CCN(CC)CCCCCOC(=O)c1ccccc1`, the T/C is, setting by setting: under setting [10], 112 % of control; under setting [7], 93 % of control; under setting [8], 103 % of control.

Take `Cc1cccc(CN2CCN(C(c3ccccc3)c3ccc(Cl)cc3)CC2)c1` (stereo not given): the T/C reads like this: (dose: 3.12 mg/kg/injection, schedule: Q04DX003 (ip), vehicle: Klucel (hydroxypropylcellulose) (HPC)) 97 % of control; (dose: 6.25 mg/kg/injection, schedule: Q04DX003 (ip), vehicle: Klucel (hydroxypropylcellulose) (HPC)) 101 % of control; under setting [6], 86 % of control; (dose: 12.5 mg/kg/injection, schedule: Q04DX003 (ip), vehicle: Klucel (hydroxypropylcellulose) (HPC)) 96 % of control; (dose: 25.0 mg/kg/injection, schedule: Q01DX009 (ip), vehicle: Klucel (hydroxypropylcellulose) (HPC)) 86 % of control; (dose: 25.0 mg/kg/injection, schedule: Q04DX003 (ip), vehicle: Klucel (hydroxypropylcellulose) (HPC)) 96 % of control. The T/C was 86 % of control under setting [10]; 89 % of control (dose: 50.0 mg/kg/injection, schedule: Q04DX003 (ip), vehicle: Klucel (hydroxypropylcellulose) (HPC)); 88 % of control under setting [11].

Take `O=C1N[C@@H]([C@H]2CC[C@H](Cl)CN2)C(=O)N[C@H]1[C@H]1CC[C@H](Cl)CN1`: the T/C is, setting by setting: (dose: 0.05 mg/kg/injection, schedule: Q01DX009 (ip), vehicle: saline) 107 % of control; (dose: 0.1 mg/kg/injection, schedule: Q01DX009 (ip), vehicle: saline) 116 % of control; (dose: 0.5 mg/kg/injection, schedule: Q04DX003 (ip), vehicle: saline) 103 % of control; (dose: 1.0 mg/kg/injection, schedule: Q01DX001 (ip), vehicle: saline) 115 % of control; (dose: 1.0 mg/kg/injection, schedule: Q04DX003 (ip), vehicle: saline) 119 % of control; (dose: 1.25 mg/kg/injection, schedule: Q01DX001 (ip), vehicle: saline) 119 % of control. Moreover, the T/C is, setting by setting: (dose: 2.0 mg/kg/injection, schedule: Q01DX001 (ip), vehicle: saline) 120 % of control; (dose: 2.0 mg/kg/injection, schedule: Q04DX003 (ip), vehicle: saline) 124 % of control; (dose: 2.5 mg/kg/injection, schedule: Q01DX001 (ip), vehicle: saline) 114 % of control; (dose: 10.0 mg/kg/injection, schedule: Q01DX009 (ip), vehicle: alkali diluted with saline) 30 % of control; (dose: 16.0 mg/kg/injection, schedule: Q01DX001 (ip), vehicle: saline) 154 % of control; (dose: 20.0 mg/kg/injection, schedule: Q01DX009 (ip), vehicle: alkali diluted with saline) 30 % of control. The T/C (dose: 40.0 mg/kg/injection, schedule: Q01DX009 (ip), vehicle: alkali diluted with saline) was 27 % of control and the T/C (dose: 80.0 mg/kg/injection, schedule: Q01DX009 (ip), vehicle: alkali diluted with saline) is 16 % of control.

As to `CC(C)=CCC/C(C)=C/CNCCc1c[nH]c2ccccc12`, the T/C under setting [5] is 107 % of control and the T/C under setting [6] was 111 % of control.

As for `CCOC(=O)C1(C)OCCO1`, the T/C runs as follows: (dose: 100.0 mg/kg/injection, schedule: Q04DX003 (ip), vehicle: saline) 95 % of control; (dose: 200.0 mg/kg/injection, schedule: Q04DX003 (ip), vehicle: saline) 104 % of control; (dose: 400.0 mg/kg/injection, schedule: Q04DX003 (ip), vehicle: saline) 104 % of control.

For the compound `O=[N+]([O-])c1ccc(C(O)CC(O)(C(F)(F)F)C(F)(F)F)cc1` (stereo not given), the T/C under setting [11] was 97 % of control; the T/C (dose: 200.0 mg/kg/injection, schedule: Q04DX003 (ip), vehicle: Klucel (hydroxypropylcellulose) (HPC)) was 97 % of control; the T/C (dose: 400.0 mg/kg/injection, schedule: Q04DX003 (ip), vehicle: Klucel (hydroxypropylcellulose) (HPC)) was 95 % of control.

In the case of `Cc1cccc(NC(=O)c2ccccc2C(=O)O)c1C`, the T/C under setting [7] is 94 % of control, the T/C under setting [8] was 94 % of control and the T/C under setting [9] was 97 % of control.

On to `N#CCCN(CCC#N)c1ccc(C=O)cc1`, for which the T/C under setting [7] is 104 % of control, the T/C under setting [8] was 98 % of control and the T/C under setting [9] was 102 % of control.
